Data from ChEMBL document CHEMBL2331085, “Identification of Tetrahydropyrido[4,3-d]pyrimidine Amides as a New Class of Orally Bioavailable TGR5 Agonists” (ACS Med Chem Lett, 2013).

Tests used:
[1] = Lipophilicity, log D of the compound by shake-flask method; type: physicochemical; conditions: octanol/water
[2] = Oral bioavailability in dog; type: ADME, organism-based, Canis lupus familiaris; conditions: in vivo
[3] = Permeability from basolateral to apical side of MDCK cells expressing MDR1; type: ADME, cell-based, Canis lupus familiaris; conditions: dog
[4] = Permeability from apical to basolateral side of MDCK cells expressing MDR1; type: ADME, cell-based, Canis lupus familiaris; conditions: dog
[5] = Volume of distribution at steady state in dog at 1 mg/kg, iv and 3 mg/kg, po; type: ADME, organism-based, Canis lupus familiaris; conditions: in vivo, read-out: Vdss
[6] = Clearance in dog at 1 mg/kg, iv and 3 mg/kg, po; type: ADME, organism-based, Canis lupus familiaris; conditions: in vivo
[7] = Half life in dog at 1 mg/kg, iv and 3 mg/kg, po; type: ADME, organism-based, Canis lupus familiaris; conditions: in vivo

| SMILES | logD [1] | other results |
| --- | --- | --- |
| COc1ccc2cc(CNCCc3ccc(Br)cc3)c(-c3ccsc3)nc2c1 | 5.1 |  |
| CCNc1nc2c(c(C(N)=O)n1)CN(C(=O)CCc1ccccc1)CC2 | 1.4 |  |
| CCNc1nc2c(c(C(N)=O)n1)CN(C(=O)CCc1ccc(CC)cc1)CC2 | 2.4 |  |
| CCNc1nc2c(c(C(N)=O)n1)CN(C(=O)CCc1ccc(C(C)C)cc1)CC2 | 3.4 |  |
| CCNc1nc2c(c(C(N)=O)n1)CN(C(=O)CCc1ccc(OC)cc1)CC2 | 1.05 |  |
| CCNc1nc2c(c(C(N)=O)n1)CN(C(=O)CCc1ccc(SC(F)(F)F)cc1)CC2 | 3.5 |  |
| CCNc1nc2c(c(C(N)=O)n1)CN(C(=O)CCc1ccc(C(C)(F)F)cc1)CC2 | 2.2 |  |
| CCNc1nc2c(c(C(N)=O)n1)CN(C(=O)CCc1ccc(C(C)(F)F)nc1)CC2 | 1.4 |  |
| Cc1ccc(N(C)C(=O)c2c(-c3ccccc3Cl)noc2C)cc1Cl | 3.9 |  |
| CCc1nnn(-c2ccccc2)c1C(=O)N(C)c1ccc(Cl)cc1 | 2.9 |  |
| CC[C@H]1[C@@H](O)[C@@H]2[C@H](C[C@H](O)[C@]3(C)[C@@H]([C@H](C)C[C@H](C)C(=O)O)CC[C@@H]23)[C@@]2(C)CCC(O)C[C@@H]12 (single isomer, unassigned) | 1.85 |  |

The next lines start with results.

| logD [1] | SMILES | other results |
| --- | --- | --- |
| 3 | CCNc1nc2c(c(C(N)=O)n1)CN(C(=O)CCc1ccc(OC(F)(F)F)cc1)CC2 | bioavailability [2]: 41%; Papp B→A [3]: 19.2 ×10⁻⁶ cm/s; Papp A→B [4]: 12.4 ×10⁻⁶ cm/s; Vd [5]: 0.43 L/kg; clearance [6]: 8.05 mL/min/kg; half-life [7]: 50.4 min |
| 2.6 | CCNc1nc2c(c(C(N)=O)n1)CN(C(=O)CCc1ccc(CC(F)(F)F)cc1)CC2 |  |
| 2.9 | CCc1nc2c(c(C(N)=O)n1)CN(C(=O)CCc1ccc(OC(F)(F)F)cc1)CC2 |  |
| 2.9 | CCOc1nc2c(c(C(N)=O)n1)CN(C(=O)CCc1ccc(OC(F)(F)F)cc1)CC2 |  |
| 3.3 | NC(=O)c1nc(C2CC2)nc2c1CN(C(=O)CCc1ccc(OC(F)(F)F)cc1)CC2 |  |
